Measured values from paper PMC5645029 (Journal of medicinal chemistry, 2017).
“Also recorded” adds a separate entry of the source. Values belong to the molecule of their own block, whether it stands above or below them. Non-standard residues stand in square brackets, D forms with d. Residues, ends and D or L forms follow the SMILES beside them.

Key:
MC5R = conditions: at 100 μM concentrations, β-galactosidase assay; cited from earlier work
mMC5R [1] = target: T1, mMC5R (Mus musculus, UniProt P41149); test: cell-based
mMC4R [2] = target: T2, mMC4R (Mus musculus, UniProt P56450); conditions: for fold less potent at the MC4R compared to 1: antagonist potency relative to 1
mMC3R [3] = target: T3, mMC3R (Mus musculus, UniProt P33033); test: AlphaScreen cAMP assay, antagonist activity; conditions: Schild paradigm, NDP-MSH
mMC4R [4] = target: T2, mMC4R; test: AlphaScreen cAMP assay, agonist activity; conditions: up to 100 μM concentrations
mMC1R = mMC1R (Mus musculus, UniProt Q01727); test: AlphaScreen cAMP assay, agonist activity; conditions: up to 100 μM concentrations
mMC3R [5] = target: T3, mMC3R; test: AlphaScreen cAMP assay, agonist activity; conditions: up to 100 μM concentrations
mMC5R [6] = target: T1, mMC5R
[7] = target: mouse melanocortin-4 receptor (mouse) (UniProt P56450)
[8] = target: mouse melanocortin-1 receptor (mouse) (UniProt Q01727)
[9] = target: mouse melanocortin-3 receptor (mouse) (UniProt P33033)
[10] = target: mouse melanocortin-5 receptor (mouse) (UniProt P41149)
mouse melanocortin-5 receptor (mouse), sequence (P41149 whole entry): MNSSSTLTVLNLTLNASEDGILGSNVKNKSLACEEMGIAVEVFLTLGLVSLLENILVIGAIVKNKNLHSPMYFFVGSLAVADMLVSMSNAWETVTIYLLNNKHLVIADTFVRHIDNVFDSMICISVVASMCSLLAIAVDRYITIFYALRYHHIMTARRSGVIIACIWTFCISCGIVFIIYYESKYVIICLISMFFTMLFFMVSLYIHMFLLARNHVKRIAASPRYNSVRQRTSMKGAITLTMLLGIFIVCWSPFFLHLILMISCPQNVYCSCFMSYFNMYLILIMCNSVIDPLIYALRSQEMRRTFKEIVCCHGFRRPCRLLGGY

mMC1R, sequence (Q01727 whole entry): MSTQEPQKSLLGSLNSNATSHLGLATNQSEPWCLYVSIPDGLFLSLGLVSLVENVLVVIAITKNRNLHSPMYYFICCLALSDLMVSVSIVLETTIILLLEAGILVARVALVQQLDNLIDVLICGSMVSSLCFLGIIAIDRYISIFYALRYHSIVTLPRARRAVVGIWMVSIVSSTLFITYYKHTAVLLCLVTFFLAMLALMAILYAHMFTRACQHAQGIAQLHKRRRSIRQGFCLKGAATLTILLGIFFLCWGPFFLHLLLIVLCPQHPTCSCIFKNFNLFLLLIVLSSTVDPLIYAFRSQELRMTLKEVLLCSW
T3 sequence (P33033 whole entry): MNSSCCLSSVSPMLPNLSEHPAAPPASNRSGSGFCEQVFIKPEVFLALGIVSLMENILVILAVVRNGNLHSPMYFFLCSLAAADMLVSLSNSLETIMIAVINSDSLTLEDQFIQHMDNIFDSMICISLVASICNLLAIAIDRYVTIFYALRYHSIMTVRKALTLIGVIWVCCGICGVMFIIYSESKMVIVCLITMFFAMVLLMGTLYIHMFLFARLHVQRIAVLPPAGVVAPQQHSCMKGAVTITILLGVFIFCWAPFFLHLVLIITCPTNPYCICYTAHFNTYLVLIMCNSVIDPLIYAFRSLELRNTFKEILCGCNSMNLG
mouse melanocortin-3 receptor (mouse), sequence (P33033 whole entry): as above
T1 sequence (P41149 whole entry): as the sequence (P41149 whole entry) above
T2 sequence (P56450 whole entry): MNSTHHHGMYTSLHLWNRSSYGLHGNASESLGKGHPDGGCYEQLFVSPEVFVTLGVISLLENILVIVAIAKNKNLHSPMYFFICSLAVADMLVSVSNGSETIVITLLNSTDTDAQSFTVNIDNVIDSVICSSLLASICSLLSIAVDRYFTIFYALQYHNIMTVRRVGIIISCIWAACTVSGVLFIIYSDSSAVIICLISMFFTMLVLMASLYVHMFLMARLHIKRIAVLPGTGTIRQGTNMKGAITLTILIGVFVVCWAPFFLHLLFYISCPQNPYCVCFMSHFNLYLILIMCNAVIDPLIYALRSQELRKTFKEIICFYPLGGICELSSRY
mouse melanocortin-4 receptor (mouse), sequence (P56450 whole entry): as above
mouse melanocortin-1 receptor (mouse), sequence (Q01727 whole entry): as the sequence (Q01727 whole entry) above

- fold less potent at the MC4R compared to 1 (mMC4R [2]): 8 fold
- antagonist activity at the MC3R (in words) (mMC3R [3]): did not possess antagonist activity
- EC50 (mMC5R [1]): 250 nM
Molecule: C[C@@H]1NC(=O)[C@H](C)NC(=O)[C@H](Cc2ccccc2)NC(=O)[C@H](Cc2ccccc2)NC(=O)[C@H](CCCNC(=N)N)NC(=O)[C@@H]2CCCN2C(=O)[C@H]2CCCN2C(=O)[C@H](Cc2ccccc2)NC1=O [Peptide 3, c[Pro-Arg-Phe-Phe-Ala-Ala-Phe-DPro]]

- fold more potent at the MC4R compared to 13 (mMC4R [2]; antagonist potency relative to 13): 70 fold
- EC50 (mMC5R [1]): 50 nM
- agonist activity at the MC4R (in words) (mMC4R [4]): No agonist activity
- agonist activity at the MC1R (in words) (mMC1R): No agonist activity
- agonist activity at the MC3R (in words) (mMC3R [5]): No agonist activity
Molecule: C[C@@H]1NC(=O)[C@H]([C@@H](C)O)NC(=O)[C@H](Cc2ccccc2)NC(=O)[C@H](Cc2ccccc2)NC(=O)[C@H](CCCNC(=N)N)NC(=O)[C@@H]2CCCN2C(=O)[C@H]2CCCN2C(=O)[C@H](Cc2ccccc2)NC1=O [Peptide 6, c[Pro-Arg-Phe-Phe-Thr-Ala-Phe-DPro]] (cyclo(RFFTAF[dP]P))

- antagonist activity at the MC3R (in words) (mMC3R [3]): did not possess antagonist activity
- agonist activity at the MC4R (in words) (mMC4R [4]): no agonist activity
- agonist activity at the MC1R (in words) (mMC1R): no agonist activity
- agonist activity at the MC3R (in words) (mMC3R [5]): no agonist activity
Molecule: C[C@@H]1NC(=O)[C@H](CC(=O)O)NC(=O)[C@H](Cc2ccccc2)NC(=O)[C@H](Cc2ccccc2)NC(=O)[C@H](CCCNC(=N)N)NC(=O)[C@@H]2CCCN2C(=O)[C@H]2CCCN2C(=O)[C@H](Cc2ccccc2)NC1=O [Peptide 7, c[Pro-Arg-Phe-Phe-Asp-Ala-Phe-DPro]]

- mMC5R inverse agonist, percent decrease from basal (mMC5R [6]): 10%
- EC50 (mMC5R [1]): 10 nM
- agonist activity at the MC4R (in words) (mMC4R [4]): no agonist activity
- agonist activity at the MC1R (in words) (mMC1R): no agonist activity
- agonist activity at the MC3R (in words) (mMC3R [5]): no agonist activity
Molecule: C[C@@H]1NC(=O)[C@H](Cc2c[nH]cn2)NC(=O)[C@H](Cc2ccccc2)NC(=O)[C@H](Cc2ccccc2)NC(=O)[C@H](CCCNC(=N)N)NC(=O)[C@@H]2CCCN2C(=O)[C@H]2CCCN2C(=O)[C@H](Cc2ccccc2)NC1=O [Peptide 10, c[Pro-Arg-Phe-Phe-His-Ala-Phe-DPro]]

- agonist EC50 (cAMP AlphaScreen, HEK293 cells stably expressing the receptor) [7]: > 100000 nM
- agonist EC50 (cAMP AlphaScreen, HEK293 cells stably expressing the receptor) [8]: > 100000 nM
- agonist EC50 (cAMP AlphaScreen, HEK293 cells stably expressing the receptor) [9]: > 100000 nM
- agonist EC50 (cAMP AlphaScreen, HEK293 cells stably expressing the receptor) [10]: > 100000 nM
Molecule: c[Pro-Arg-Phe-Phe-Nle-Ala-Phe-DPro] (peptide)

- agonist EC50 (cAMP AlphaScreen, HEK293 cells stably expressing the receptor) [7]: > 100000 nM
- agonist EC50 (cAMP AlphaScreen, HEK293 cells stably expressing the receptor) [8]: > 100000 nM
- agonist EC50 (cAMP AlphaScreen, HEK293 cells stably expressing the receptor) [9]: > 100000 nM
- agonist EC50 (cAMP AlphaScreen, HEK293 cells stably expressing the receptor) [10]: > 100000 nM
B1: c[Pro-Arg-Phe-Phe-Phe-Ala-Phe-DPro] (peptide)
peptide: cyclo(PRFFFAF[dP])
SMILES: C[C@@H]1NC(=O)[C@H](Cc2ccccc2)NC(=O)[C@H](Cc2ccccc2)NC(=O)[C@H](Cc2ccccc2)NC(=O)[C@H](CCCNC(=N)N)NC(=O)[C@@H]2CCCN2C(=O)[C@H]2CCCN2C(=O)[C@H](Cc2ccccc2)NC1=O

- agonist EC50 (cAMP AlphaScreen, HEK293 cells stably expressing the receptor) [10]: > 100000 nM
B2: c[Pro-Arg-Phe-Phe-Asn-Leu-Phe-DPro] (peptide)
peptide: cyclo(PRFFNLF[dP])
SMILES: CC(C)C[C@@H]1NC(=O)[C@H](CC(N)=O)NC(=O)[C@H](Cc2ccccc2)NC(=O)[C@H](Cc2ccccc2)NC(=O)[C@H](CCCNC(=N)N)NC(=O)[C@@H]2CCCN2C(=O)[C@H]2CCCN2C(=O)[C@H](Cc2ccccc2)NC1=O

- agonist EC50 (cAMP AlphaScreen, HEK293 cells stably expressing the receptor) [7]: > 100000 nM
- agonist EC50 (cAMP AlphaScreen, HEK293 cells stably expressing the receptor) [9]: > 100000 nM
- agonist EC50 (cAMP AlphaScreen, HEK293 cells stably expressing the receptor) [10]: > 100000 nM
B3: c[Pro-Arg-Phe-Phe-Asn-Glu-Phe-DPro] (peptide)
peptide: cyclo(PRFFNEF[dP])
SMILES: N=C(N)NCCC[C@@H]1NC(=O)[C@@H]2CCCN2C(=O)[C@H]2CCCN2C(=O)[C@H](Cc2ccccc2)NC(=O)[C@H](CCC(=O)O)NC(=O)[C@H](CC(N)=O)NC(=O)[C@H](Cc2ccccc2)NC(=O)[C@H](Cc2ccccc2)NC1=O

- agonist EC50 (cAMP AlphaScreen, HEK293 cells stably expressing the receptor) [7]: > 100000 nM
- agonist EC50 (cAMP AlphaScreen, HEK293 cells stably expressing the receptor) [9]: > 100000 nM
- agonist EC50 (cAMP AlphaScreen, HEK293 cells stably expressing the receptor) [10]: > 100000 nM
B4: c[Pro-Arg-Phe-Phe-Asn-His-Phe-DPro] (peptide)
peptide: cyclo(PRFFNHF[dP])
SMILES: N=C(N)NCCC[C@@H]1NC(=O)[C@@H]2CCCN2C(=O)[C@H]2CCCN2C(=O)[C@H](Cc2ccccc2)NC(=O)[C@H](Cc2c[nH]cn2)NC(=O)[C@H](CC(N)=O)NC(=O)[C@H](Cc2ccccc2)NC(=O)[C@H](Cc2ccccc2)NC1=O

The next lines start with the molecule.

Molecule: C[C@@H]1NC(=O)[C@H](CC(N)=O)NC(=O)[C@H](Cc2ccccc2)NC(=O)[C@H](Cc2ccccc2)NC(=O)[C@H](CCCNC(=N)N)NC(=O)[C@@H]2CCCN2C(=O)[C@H]2CCCN2C(=O)[C@H](Cc2ccccc2)NC1=O [Peptide 1, c[Pro-Arg-Phe-Phe-Asn-Ala-Phe-DPro]]
- activity at the MC5R (MC5R): no activity

Molecule: C[C@@H]1NC(=O)[C@H](CN)NC(=O)[C@H](Cc2ccccc2)NC(=O)[C@H](Cc2ccccc2)NC(=O)[C@H](CCCNC(=N)N)NC(=O)[C@@H]2CCCN2C(=O)[C@H]2CCCN2C(=O)[C@H](Cc2ccccc2)NC1=O [Peptide 2, c[Pro-Arg-Phe-Phe-Dap-Ala-Phe-DPro]]
- EC50 (mMC5R [1]): 60 nM
- activity at the MC5R (MC5R): no activity

Molecule: CC[C@@H]1NC(=O)[C@H](Cc2ccccc2)NC(=O)[C@H](Cc2ccccc2)NC(=O)[C@H](CCCNC(=N)N)NC(=O)[C@@H]2CCCN2C(=O)[C@H]2CCCN2C(=O)[C@H](Cc2ccccc2)NC(=O)[C@H](C)NC1=O [Peptide 4, c[Pro-Arg-Phe-Phe-Abu-Ala-Phe-DPro]]
- antagonist activity at the MC3R (in words) (mMC3R [3]): did not possess antagonist activity
- EC50 (mMC5R [1]): 160 nM

Molecule: C[C@@H]1NC(=O)[C@H](CCC(=O)O)NC(=O)[C@H](Cc2ccccc2)NC(=O)[C@H](Cc2ccccc2)NC(=O)[C@H](CCCNC(=N)N)NC(=O)[C@@H]2CCCN2C(=O)[C@H]2CCCN2C(=O)[C@H](Cc2ccccc2)NC1=O [Peptide 8, c[Pro-Arg-Phe-Phe-Glu-Ala-Phe-DPro]]
- fold less potent at the MC4R compared to 1 (mMC4R [2]): 16 fold
- antagonist activity at the MC3R (in words) (mMC3R [3]): did not result in measurable activity
- EC50 (mMC5R [1]): 700 nM
- agonist activity at the MC3R (in words) (mMC3R [5]): did not result in measurable activity

Molecule: CCCC[C@@H]1NC(=O)[C@H](Cc2ccccc2)NC(=O)[C@H](Cc2ccccc2)NC(=O)[C@H](CCCNC(=N)N)NC(=O)[C@@H]2CCCN2C(=O)[C@H]2CCCN2C(=O)[C@H](Cc2ccccc2)NC(=O)[C@H](C)NC1=O [Peptide 11, c[Pro-Arg-Phe-Phe-Nle-Ala-Phe-DPro]]
- activity at the MC5R (in words) (mMC5R [6]): no activity
- fold less potent at the MC4R compared to 1 (mMC4R [2]): at least 8 fold

Molecule: CC(C)C[C@@H]1NC(=O)[C@H](Cc2ccccc2)NC(=O)[C@H](Cc2ccccc2)NC(=O)[C@H](CCCNC(=N)N)NC(=O)[C@@H]2CCCN2C(=O)[C@H]2CCCN2C(=O)[C@H](Cc2ccccc2)NC(=O)[C@H](C)NC1=O [Peptide 12, c[Pro-Arg-Phe-Phe-Leu-Ala-Phe-DPro]] (cyclo(RFFLAF[dP]P))
- fold less potent at the MC4R compared to 1 (mMC4R [2]): at least 8 fold
- EC50 (mMC5R [1]): 110 nM

Molecule: CC(C)[C@@H]1NC(=O)[C@H](Cc2ccccc2)NC(=O)[C@H](Cc2ccccc2)NC(=O)[C@H](CCCNC(=N)N)NC(=O)[C@@H]2CCCN2C(=O)[C@H]2CCCN2C(=O)[C@H](Cc2ccccc2)NC(=O)[C@H](C)NC1=O [Peptide 13, c[Pro-Arg-Phe-Phe-Val-Ala-Phe-DPro]]
- fold less potent at the MC4R compared to 1 (mMC4R [2]): at least 8 fold
- EC50 (mMC5R [1]): 510 nM

Molecule: N=C(N)NCCC[C@@H]1NC(=O)[C@@H]2CCCN2C(=O)[C@H]2CCCN2C(=O)[C@H](Cc2ccccc2)NC(=O)[C@H](CC(=O)O)NC(=O)[C@H](CC(N)=O)NC(=O)[C@H](Cc2ccccc2)NC(=O)[C@H](Cc2ccccc2)NC1=O [Peptide 16, c[Pro-Arg-Phe-Phe-Asn-Asp-Phe-DPro]] (cyclo(RFFNDF[dP]P))
- antagonist activity at the MC3R (in words) (mMC3R [3]): did not result in observable agonist or antagonist activity; also recorded: did not possess antagonist activity
- agonist activity at the MC4R (in words) (mMC4R [4]): did not result in observable agonist or antagonist activity
- agonist activity at the MC3R (in words) (mMC3R [5]): did not result in observable agonist or antagonist activity

Molecule: N=C(N)NCCC[C@@H]1NC(=O)[C@@H]2CCCN2C(=O)[C@H]2CCCN2C(=O)[C@H](Cc2ccccc2)NC(=O)[C@H](CCC(=O)O)NC(=O)[C@H](CC(N)=O)NC(=O)[C@H](Cc2ccccc2)NC(=O)[C@H](Cc2ccccc2)NC1=O [Peptide 17, c[Pro-Arg-Phe-Phe-Asn-Glu-Phe-DPro]] (cyclo(RFFNEF[dP]P))
- activity at the MC5R (in words) (mMC5R [6]): no activity
- antagonist activity at the MC3R (in words) (mMC3R [3]): did not result in observable agonist or antagonist activity; also recorded: did not possess antagonist activity
- agonist activity at the MC4R (in words) (mMC4R [4]): did not result in observable agonist or antagonist activity
- agonist activity at the MC3R (in words) (mMC3R [5]): did not result in observable agonist or antagonist activity

Molecule: CC(C)C[C@@H]1NC(=O)[C@H](CC(N)=O)NC(=O)[C@H](Cc2ccccc2)NC(=O)[C@H](Cc2ccccc2)NC(=O)[C@H](CCCNC(=N)N)NC(=O)[C@@H]2CCCN2C(=O)[C@H]2CCCN2C(=O)[C@H](Cc2ccccc2)NC1=O [Peptide 22, c[Pro-Arg-Phe-Phe-Asn-Leu-Phe-DPro]]
- activity at the MC5R (in words) (mMC5R [6]): no activity
